From the supplement of paper PMC5770543
± gives the standard deviation.

Legend:
[1] = tested on: Plasmodium falciparum 3D7; test: % inhibition of schizont-to-ring transition vs DMSO; higher = more inhibition
In short: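 Tightly synchronised P. falciparum schizonts (about 40–42 hours post-invasion, 1% parasitemia, 2.5% hematocrit, AlbuMAX-supplemented RPMI) were exposed to compound at 1, 3 or 10 µM, with vehicle and positive controls. Cells were glutaraldehyde-fixed, Triton-permeabilised, stained with Hoechst 33342 and counted by flow cytometry (at least 100,000 events). Schizont-to-ring transition inhibition is new ring formation relative to vehicle controls, averaged over three experiments.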

[2] = tested on: Plasmodium falciparum 3D7; test: EC50 growth inhibition (60 h, SYBR Green); settings: stage: ring-stage start
[3] = tested on: Toxoplasma gondii RH tachyzoites; test: plaque count per well; higher = less inhibition; extreme values may be limits of the assay; settings: 10 µM; 8-10 days
Description: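 T. gondii RH tachyzoites expressing firefly luciferase were grown in HFF monolayers for 48 h with compound. % growth inhibition at 10 µM and EC50 (2-fold dilutions from 10 µM) were read by luminescence relative to 1% DMSO; EC50 listed as 10 (not determined, <80% inhibition) is left out. Plaque assays: 50 tachyzoites per well with 10 µM compound for 8-10 days, giving plaque count and area by crystal violet/ImageJ. Egress: median time to egress after 1 µM A23187 ionophore following 24 h of 10 µM compound (DMSO ~1.8 min; >10 = no egress within 10 min).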

[4] = tested on: Toxoplasma gondii RH tachyzoites; test: % growth inhibition vs DMSO (48 h luciferase); higher = more inhibition; settings: 10 µM
[5] = target: Toxoplasma gondii RH tachyzoites; test: EC50 growth inhibition (48 h luciferase)
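For % growth inhibition vs DMSO (48 h luciferase) in this document: tested in triplicate wells of 96-well plates on confluent HFF monolayers, with 1% DMSO wells as negative control in four replicates.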

Row | Compound | % inhibition of schizont-to-ring transition ([1]; 1 µM) [%] | % inhibition of schizont-to-ring transition ([1]; 3 µM) [%] | % inhibition of schizont-to-ring transition ([1]; 10 µM) [%] | EC50 growth inhibition [2] [µM] | plaque count per well [3] | % growth inhibition [4] [%] | EC50 growth inhibition [5] [µM]
1 | Cc1cccc(N2C(=O)C3C(C2=O)C2(c4ccccc4)C(=O)C3(c3ccccc3)C(c3ccc4c(c3)OCO4)=C2c2ccc3c(c2)OCO3)c1 (centres undefined) | < 0 | < 0 | 17.3 | 1.02 | 20 | < 0 | –
2 | CCc1ccc(CNCC(O)c2ccccc2)cc1 (centres undefined) | 12.2 | 14.9 | 45.9 | 4.01 | 21 | < 0 | –
3 | CN1CCN(c2nc(Nc3ccc(O)cc3)nc3ccccc23)CC1 | 34.7 | 33.4 | 52.2 | 1.26 | 29 | < 0 | –
4 | CCn1c(CN2CCN(Cc3ccccc3)CC2)nc2cc(NC(=O)c3cccs3)ccc21 | 40.6 | 47.9 | 56 | 0.615 | 0 | < 0 | –
5 | CCOc1ccc(-n2cc(-c3ccccc3)c3c(SCc4cc(C)ccc4C)ncnc32)cc1 | 1.01 | 7.47 | 15.8 | – | – | 86.5 ± 1.3 | 3.17
6 | COc1ccc(-n2ccnc2SCC(=O)Nc2cc(C)ccc2C)c(OC)c1 | 41.6 | 49.9 | 56.2 | 0.226 | 31 | < 0 | –
7 | CC1CCN(Cc2ccc(NC(=O)c3cc4ccc5cccnc5c4[nH]3)cc2)CC1 | 42.3 | 50 | 55.4 | 0.241 | 18 | < 0 | –
8 | COc1ccccc1N1CCN(C(CNS(=O)(=O)c2ccc(Cl)cc2)c2cccnc2)CC1 (centres undefined) | 16 | 20.5 | 49.3 | 2.26 | 34 | 4.77 ± 8.3 | –
9 | Clc1ccc2[nH]c3c(NCCCN4CCOCC4)ncnc3c2c1 | 40.9 | 53.1 | 56.3 | 0.189 | 23 | < 0 | –
10 | COc1ccc(OC)c(C2C3=C(CC(C)(C)CC3=O)N(c3ccc(Cl)c(Cl)c3)C3=C2C(=O)CC(C)(C)C3)c1 | 16.9 | 20.7 | 50.7 | 7.74 | 38 | < 0 | –
11 | CN1C=C(c2ccc3ccccc3n2)C(c2c[nH]c3ccccc23)c2ccccc21 (centres undefined) | 26.7 | 37.7 | 70.6 | 0.638 | 0 | < 0 | –
12 | Cc1ccc(-c2cc3nc4c(c(O)n3n2)CCCC4)cc1 | 17.7 | 36.1 | 49.3 | 4.27 | 0 | < 0 | –
13 | COc1ccc(N2CCN(C(CNC(=O)C3CCCCC3)c3ccc4c(c3)OCO4)CC2)cc1 (centres undefined) | 41.5 | 44.2 | 49.2 | 6.24 | 23 | < 0 | –
14 | O=C(O)C1Cc2c([nH]c3ccccc23)C(c2ccc(Cl)cc2Cl)N1 (centres undefined) | 8.54 | 18.6 | 26.4 | 1.3 | 32 | < 0 | –
15 | COc1cccc(Nc2nc(N)c3ccccc3n2)c1 | < 0 | 12.3 | 41.7 | 1.32 | 0 | < 0 | –
